According to PMC8689208, “Structure of a monomeric photosystem II core complex from a cyanobacterium acclimated to far-red light reveals the functions of chlorophylls d and f” (The Journal of Biological Chemistry, 2021):

Molecular target: T1, apo-FRL-PSII (reaction centre PsbA3/PsbD3 sites) (Synechococcus sp. PCC 7335, UniProt B4WKI3+Z9EN74SDD1)
T1 construct: native monomeric core complex from FRL-acclimated cells, ~226 kDa modelled; His6 tag at C-terminus of PsbC2; lacks OEC, extrinsic subunits and PsbH2 in map; PsbF2 assignment tentative; one unknown helix; with Photosystem II CP47 reaction center protein; Photosystem II CP43 reaction center protein; Cytochrome b559 subunit alpha; Cytochrome b559 subunit beta; Photosystem II reaction center protein I; Photosystem II reaction center protein K
Assay: cryo-EM structure, […] Å
Format: binding
Settings: QA site; QB absent

CC(C)=CCC/C(C)=C/CC/C(C)=C/CC/C(C)=C/CC/C(C)=C/CC/C(C)=C/CC/C(C)=C/CC/C(C)=C/CC/C(C)=C/CC1=CC(=O)C(C)=C(C)C1=O [plastoquinone]
cryo-EM structure, 2.25 Å: one heme b, one plastoquinone, one NH-Fe ion
